US20230087994A1, “TARGETED BIFUNCTIONAL DEGRADERS” (YALE UNIVERSITY, priority 2019, published 2023)

Tests used:
human MIF [1] = target: T1, human MIF (Homo sapiens, UniProt P14174); experiment: Depletion of injected recombinant human MIF from serum in mice; type: in vivo; design: injected into mice; details: for depletion of human MIF protein from serum: 10 mpk, 30 minutes, FIG. 135
T1 sequence (P14174 2-115 limits assumed): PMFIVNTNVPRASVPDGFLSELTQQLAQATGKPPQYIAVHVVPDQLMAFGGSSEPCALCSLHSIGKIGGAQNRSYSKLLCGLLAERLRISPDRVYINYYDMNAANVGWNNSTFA
Method: In vivo human MIF depletion experiments were undertaken to determine whether MIF-GN3 can mediate the depletion of injected recombinant human MIF from serum in mice. Mice were injected with five μg of the human MIF protein. In this experiment, one group of mice was also injected with a single 10 mpk dose of MIF-GN3 along with human MIF protein. It was observed that after four hours, the average level of human MIF in serum in the PBS-treated mice was 1.76 ng/mL (FIG. 134). In mice treated with 10 mpk MIF-GN3, however, the concentration of human MIF in serum was 0.68 ng/mL. One day after the initial injection, human MIF levels had reached background levels for both conditions. […] It was hypothesized that, due to the short half-life of human MIF in serum, investigating human MIF levels at earlier time points may be more informative.
Next, an experiment was performed to determine whether MIF-GN3 could enhance MIF clearance at time points earlier than four hours. Mice were coinjected with recombinant human MIF and 10 mpk MIF-GN3 via either i.p. or i.v. routes. For the PBS control arms, human MIF was injected with PBS. It was observed that in the absence of MIF-GN3, there was a spike in huMIF levels in circulation after 30 minutes (FIG. 135). In the presence of MIF-GN3, however, levels of MIF protein remained low at 30 minutes and no spike in its concentration was observed. By two hours, the levels of human MIF in circulation decreased to background levels. […] In a further experiment, whether an inhibitor of the MIF protein (3w) is able to mediate the protein's depletion from serum was determined. A bifunctional molecule that mediates the depletion of α-DNP antibody from serum was also assayed as a negative control. Neither of these molecules was expected to mediate the formation of a ternary complex between human MIF protein and ASGPR.
(§1) In order to confirm that mice injected with one or ten mpk MIF-GN3 had received the injection, and that the observed stability of MIF concentrations in MIF-GN3 treated mice was not the result of injection error, 200 μg of α-DNP antibody was coinjected with the MIF protein in this experiment. […] An investigation of the ability of MIF-GN3 to mediate the depletion of endogenous mouse MIF in vivo was next undertaken. Mice were treated with either PBS or 10 mpk of MIF-GN3. […] One possible explanation for this finding is that MIF protein may be synthesized rapidly, and any increase in degradation mediated by MIF-GN3 may not be of a large enough magnitude to impact the protein's level in serum.

HepG2 cells [2] = experiment: Subcellular localization of endocytosed MIF protein in HepG2 cells; type: cell-based, human; details: 12 hours; FIG. 133
Method: In order to investigate the subcellular localization of endocytosed MIF protein, colocalization studies were performed in HepG2 cells. After 12 hours of MIF-GN mediated endocytosis, several punctae displaying MIF-derived fluorescence were present in each cell.

HepG2 cells [3] = experiment: MIF-GN3-mediated endocytosis of fluorescently labeled human MIF by HepG2 cells
Method: Human MIF protein was fluorescently labeled with Alexa 488 NHS ester, then incubated with HepG2 cells in the presence of varying levels of MIF-GN3.
Next, inhibitors of various endocytic pathways were utilized to determine if MIF-GN3 mediates MIF endocytosis in a manner consistent with ASGPR (FIG. 132).

[4] = Pharmacokinetics of MIF-GN3 in male nude mice; type: in vivo; details: one mpk dose
From the text: The ability of MIF-GN3 to mediate the depletion of injected human MIF from serum in mice was studied. First, the pharmacokinetics of the bifunctional molecule were investigated.

human MIF [5] = target: T1, human MIF; experiment: Depletion of human MIF from cell culture supernatant (sandwich ELISA); type: cell-based; design: host or cells: exogenous protein added to cell culture; details: for removal of MIF from supernatant: after 48 hours
Method: The ability of bifunctional MIF-binding molecules to mediate the depletion of human MIF from cell culture was investigated. In these assays, human MIF was present at a concentration of 100 nM, and a sandwich ELISA assay was utilized to measure the concentration of human MIF remaining in the cell culture supernatant. The closely related bifunctional molecules MIF-GN3, MIF-PEG2-GN3, and MIF-PEG4-GN3 were used, as well as the structurally dissimilar molecule MIF-NVS-PEG3-GN3. […] Based on the ease of its synthesis and its efficacy in this experiment, MIF-GN3 was utilized for further studies. It was next investigated whether the MIF inhibitor 3w mediates MIF depletion from cell culture supernatant. […] When cells were treated with 3w, no depletion of exogenous MIF protein was observed after 24 hours (FIG. 128B).

mouse MIF = target: T2, mouse MIF (Mus musculus, UniProt P34884); experiment: Depletion of endogenous mouse MIF in vivo; design: species or system mice; details: 10 mpk, single dose; FIG. 137
T2 construct: mediate the depletion of endogenous mouse MIF in vivo; from tissue; host or cells: mouse serum (in vivo)
Method: as §1

PC3 cells = experiment: Human prostate cancer PC3 tumor growth in mice; type: in vivo
Method: The ability of MIF-GN3 to mediate the depletion of MIF in a therapeutically relevant disease model was investigated. […] An experiment was conducted to determine whether the bifunctional molecule MIF-GN3 can deplete sufficient human MIF from serum to slow PC3 tumor growth. Mice were injected with an aliquot of PC3 cells, and the size of the resultant tumors as well as the levels of human MIF in serum were monitored over five weeks. […] Five weeks after the initial PC3 cell injection, the first of the mice reached maximal tumor size ([…]) and was sacrificed (FIG. 138). […] The decrease in human MIF levels mediated by MIF-GN3 is consistent with a mechanism of action in which MIF-GN3 mediates the depletion and degradation of circulating MIF protein. While the α-MIF antibody would not necessarily be expected to decrease the levels of human MIF, it is possible that the antibody mediates MIF neutralization in a manner which masks its signal as determined by ELISA. Alternatively, the α-MIF antibody may mediate depletion or degradation of huMIF by some endocytic mechanism. Another possible explanation is that the α-MIF antibody decrease serum levels of active human MIF to such an extent at early time points that PC3 cells proliferate much more slowly, and therefore fewer cells are actively secreting human MIF.
Mice were sacrificed when their tumor volumes reached 1000 mm^3. […] At this same time point, less than 25% of the mice in any other arm had survived.

In the case of `CC(=O)N[C@H]1[C@H](OCCOCCOCCNC(=O)CCOCC(COCCC(=O)NCCOCCOCCO[C@@H]2O[C@H](CO)[C@H](O)[C@H](O)[C@H]2NC(C)=O)(COCCC(=O)NCCOCCOCCO[C@@H]2O[C@H](CO)[C@H](O)[C@H](O)[C@H]2NC(C)=O)NC(=O)CNC(=O)CCCOc2ccc3nc(-c4cn(-c5ccc(O)c(F)c5)nn4)ccc3c2)O[C@H](CO)[C@H](O)[C@@H]1O` [MIF-GN3], the “depletion of human MIF protein from serum” value (human MIF [1]; i.p.) is reported as “significant depletion”, the “depletion of human MIF protein from serum” value (human MIF [1]; i.v.) is reported as “significant depletion” and the “concentration of human MIF in serum” value (human MIF [1]; four hours, single 10 mpk dose, five μg human MIF (PBS 1.76 ng/mL; difference not significant), FIG. 134) is reported as 0.68 ng/mL. The “human MIF levels in serum” value (human MIF [1]; one mpk, 40 and 60 minute time points, FIG. 136) was “significant decrease”, the “concentration of human MIF in serum” value (human MIF [1]; ten mpk, 40 and 60 minutes, FIG. 136) was “significant decreses” and the “colocalization of MIF protein with LAMP2” value (HepG2 cells [2]) was “near-complete colocalization”. The “overlap of MIF punctae with EEA1” value (HepG2 cells [2]) was “did not overlap”, the “fluorescence relative to cells not treated with bifunctional molecule” value (HepG2 cells [3]; 10 nM MIF protein, 200 nM MIF-GN3, FIG. 131) was 4 fold and the “MIF uptake compared to lower concentrations” value (HepG2 cells [3]; 5.00 μM MIF-GN3, 100 nM MIF protein) was “slight decrease in MIF uptake”. The “MIF-GN3 concentration of maximal intracellular fluorescence” value (HepG2 cells [3]; highest concentration investigated, FIG. 130) was 1.0 µM, the half-life in serum [4] was 25.8 min and the maximum plasma concentration [4] was 586.87 ng/mL. The “time of maximum plasma concentration” value [4] was 15 min, the “removal of MIF from supernatant” value (human MIF [5]; 200 nM) was 56.0% and the “removal of MIF from supernatant” value (human MIF [5]; 1 μM) was 67.0%. For the same compound, the “depletion of human MIF from cell culture supernatant” value (human MIF [5]; human MIF 100 nM, 24 hours, FIG. 128A) was “effective at mediating the depletion of human MIF”, the “mouse MIF concentrations in serum” value (mouse MIF) was “No significant decrease” and the PC3 tumor growth (PC3 cells; 1 mpk) was “delay in tumor growth”. For the same compound, the PC3 tumor growth (PC3 cells; 10 mpk) was “not found to decrease tumor growth”, the “human MIF protein in serum” value (PC3 cells; MIF-GN3 at 1 mpk, FIG. 139) was “decreased levels of human MIF protein” and the survival (PC3 cells; eight weeks after the initial PC3 cell injection, MIF-GN3 at 1 mpk, FIG. 140) was 80%.
